According to ChEMBL document CHEMBL3124776, “Discovery of novel urea derivatives as dual-target hypoglycemic agents that activate glucokinase and PPARγ” (Eur J Med Chem, 2014):
Activity calls are given as the source filed them. The calls are words filed in the database; no cut-off is given here.

Experiments:
[1] = target: T1, Peroxisome proliferator-activated receptor gamma (Homo sapiens) (UniProt P37231); assay: Activation of PPAR-gamma (unknown origin) transfected in human U2OS cells assessed as increase in transcriptional activity at 10^-6 M after 24 hrs by luciferase reporter gene assay; assay type: cell-based
T1 sequence (whole entry): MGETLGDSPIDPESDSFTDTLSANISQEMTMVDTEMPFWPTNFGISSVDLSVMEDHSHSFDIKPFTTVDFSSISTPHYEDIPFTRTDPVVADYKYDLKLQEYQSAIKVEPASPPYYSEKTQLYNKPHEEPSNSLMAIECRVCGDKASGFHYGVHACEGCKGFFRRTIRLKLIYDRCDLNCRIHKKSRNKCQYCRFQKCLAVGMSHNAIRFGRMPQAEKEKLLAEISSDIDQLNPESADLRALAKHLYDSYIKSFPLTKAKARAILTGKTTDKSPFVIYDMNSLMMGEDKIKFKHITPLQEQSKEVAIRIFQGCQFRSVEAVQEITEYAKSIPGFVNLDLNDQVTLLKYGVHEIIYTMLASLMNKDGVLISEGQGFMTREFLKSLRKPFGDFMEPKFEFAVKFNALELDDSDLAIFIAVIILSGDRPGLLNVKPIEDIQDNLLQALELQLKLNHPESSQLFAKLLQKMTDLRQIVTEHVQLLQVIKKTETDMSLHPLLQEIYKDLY

Homo sapiens = organism: Homo sapiens; assay: Selectivity for PPAR-gamma (unknown origin) over PPAR-alpha (unknown origin)
[2] = target: T1, Peroxisome proliferator-activated receptor gamma (Homo sapiens); assay: Activation of PPAR-gamma (unknown origin) transfected in human U2OS cells assessed as increase in transcriptional activity at 10^-6 M after 24 hrs by luciferase reporter gene assay relative to rosiglitazone; assay type: cell-based
Mus musculus [3] = assay: Hypoglycemic activity in ICR mouse assessed as decrease in blood glucose level at 50 mg/kg, po after 6 hrs by OGTT relative to control; assay type: functional; design: scale not given: the % may be the effect or the level left
Mus musculus [4] = assay: Hypoglycemic activity in ICR mouse assessed as decrease in blood glucose level at 50 mg/kg, po after 4 hrs by OGTT relative to control; assay type: functional; design: scale not given: the % may be the effect or the level left
Mus musculus [5] = assay: Hypoglycemic activity in ICR mouse assessed as decrease in blood glucose level at 50 mg/kg, po after 2 hrs by OGTT relative to control; assay type: functional; design: scale not given: the % may be the effect or the level left
Mus musculus [6] = assay: Hypoglycemic activity in ICR mouse assessed as reduction of blood glucose AUC (0 to 120 mins) at 50 mg/kg, po qd administered for 3 days followed by glucose challenge for 40 mins on day 3 post last dose by OGTT relative to control; assay type: functional; design: scale not given: the % may be the effect or the level left
[7] = MRT (0 to t) in ICR mouse at 50 mg/kg, po; assay type: ADME, organism-based; design: dose 50 mg/kg, route oral; conditions: in vivo
[8] = AUC (0 to t) in ICR mouse at 50 mg/kg, po; assay type: ADME, organism-based; design: dose 50 mg/kg, route oral; conditions: plasma
[9] = Tmax in ICR mouse at 50 mg/kg, po; assay type: ADME, organism-based; design: dose 50 mg/kg, route oral; conditions: in vivo
[10] = Cmax in ICR mouse at 50 mg/kg, po; assay type: ADME, organism-based; design: dose 50 mg/kg, route oral; conditions: in vivo

Compound: CC(C)CCN(C(=O)Nc1nc2ccccc2s1)c1ccc(OC(C)(C)C(=O)O)cc1
- Activity [1]: Active

Compound: CCCN(C(=O)Nc1nc2ccc(C)cc2s1)c1ccc(OC(C)(C)C(=O)O)cc1
- Activity [1]: Active

Compound: CC(C)(Oc1ccc(CCN(CC2CCCCC2)C(=O)Nc2ccc(F)cc2F)cc1)C(=O)O
- Selectivity ratio (Homo sapiens): 10

Compound: CC(C)(Oc1ccc(N(CC2CCCCC2)C(=O)Nc2nc3ccccc3s2)cc1)C(=O)O
- Activity [2]: > 38.8%

Compound: CCOC(=O)C(C)(C)Oc1ccc(N(Cc2ccco2)C(=O)Nc2nccs2)cc1
- Activity [1]: Active

Compound: CCCCCN(C(=O)Nc1nc2ccc(C)cc2s1)c1ccc(OC(C)(C)C(=O)O)cc1
- Activity (Mus musculus [3]): 20%
- Activity (Mus musculus [4]): 22.6%
- Activity [2]: > 38.8%

Compound: CC(C)Oc1cc(OCCc2ccsc2)cc(C(=O)Nc2ccc(C(=O)O)cn2)c1
- Activity (Mus musculus [3]): 24.4%
- Activity (Mus musculus [4]): 41.8%
- Activity (Mus musculus [5]): 29.7%

Compound: CCOC(=O)C(C)(C)Oc1ccc(N(CC=C(C)C)C(=O)Nc2nccs2)cc1
- Activity [1]: Active

Compound: CCCCCN(C(=O)Nc1nccs1)c1ccc(OC(C)(C)C(=O)OCC)cc1
- Activity (Mus musculus [6]): 10%
- Activity [2]: > 38.8%

Compound: CCCCCN(C(=O)Nc1nccs1)c1ccc(OC(C)(C)C(=O)O)cc1
- MRT last [7]: 67.8 min
- AUC(0-t) [8]: 98000 ng·h/mL
- Tmax [9]: 30 min
- Cmax [10]: 77.8 µg/mL
- Activity (Mus musculus [6]): 34.6%
- Activity (Mus musculus [4]): Active
- Activity (Mus musculus [5]): Active
- Activity [2]: > 38.8%

Compound: C=CCN(C(=O)Nc1nccs1)c1ccc(OC(C)(C)C(=O)OCC)cc1
- Activity [2]: > 38.8%

Compound: CC(C)(Oc1ccc(N(Cc2cccc(F)c2)C(=O)Nc2nc3ccccc3s2)cc1)C(=O)O
- Activity [1]: Active
